Patent publication US20100286082A1, “RIBOSWITCHES AND METHODS AND COMPOSITIONS FOR USE OF AND WITH RIBOSWITCHES” (Yale University, priority 2007, published 2010)
Where “and” joins values, the source holds several entries; their conditions need not be identical. Identical values can stand only once.

Experiments:
17-90 RNA = test: In-line probing of 17-90 RNA (preQ1-II aptamer); type: binding, Streptococcus pneumoniae R6; conditions: for binding by 17-90 RNA: compound concentrations up to 1 mM; for Kd: read-out: apparent KD
68 metH RNA [1] = test: In-line probing of 68 metH RNA (SAH aptamer); type: binding, Dechloromonas aromatica; conditions: for modulation of the RNA structure: concentrations as high as 1 mM
Protocol: iii. In-Line Probing Analysis In-line probing assays were carried out essentially as previously described (Soukup and Breaker, 1999). 5′^32P-labeled RNAs were incubated at room temperature for approximately 40 h in 10 μl volumes containing 50 mM Tris-HCl (pH 8.3 at 25° C.), 20 mM MgCl2, 100 mM KCl, and included test compounds at the concentrations indicated. Spontaneous cleavage products were separated by denaturing 10% PAGE, visualized using a Phosphorlmager (Molecular Dynamics), and quantified using SAFA v1.1 software (Das et al., 2005). The amount of RNA cleaved at each nucleotide position was obtained from SAFA analysis, which automatically determines reference nucleotide positions with invariant levels of spontaneous cleavage to correct for different amounts loaded in each lane. Individual band intensities at each modulated site were summed and normalized to obtain values for the fraction of RNA that was structurally modulated, assuming that there was no modulation in the absence of ligand and maximal modulation in the presence of the highest concentration of ligand. Values for the apparent dissociation constant (KD) were determined by fitting the plot of the fraction modulated (F), versus the ligand concentration, [L], at all three indicated modulation sites to the equation F [L]/([L]+KD) using SigmaPlot 9 software (Systat Software, Inc.).

[2] = biological target: SAM-I riboswitch 124 yitJ; test: SAM-I riboswitch binding (literature); conditions: ratio of the KD for the compound to that for SAM
68 metH RNA [3] = test: Equilibrium dialysis of [3H]SAM with 68 metH RNA; type: binding, Dechloromonas aromatica
Protocol: (§1) The chambers were separated by a permeable membrane with a molecular weight cut-off of 5000 Daltons.
(§2) Equilibrium dialysis was performed by delivering 20 μl samples to each side of a Dispo-Equilibrium Biodialyzer (The Nest Group, Inc., Southboro, Mass., USA) wherein the separation between chambers is maintained by a dialysis membrane with a 5000 Dalton molecular weight cut-off. One chamber contained a buffer solution comprised of 100 mM Tris-HCl (pH 8.3 at 24° C.), 20 mM MgCl2, 100 mM KCl, plus 100 nM [^3H]SAM.

[4] = biological target: 132 Sc RNA (SAM-IV riboswitch); test: In-line probing of 132 Sc RNA (SAM-IV); type: binding, Streptomyces coelicolor
Text: DNA corresponding to the aptamer in the pEZ35 plasmid (above) was amplified by PCR with primers 5′-[…]

SAM-II aptamer 156 metA [5] = conditions: Corbino et al., 2005; read-out: apparent KD for SAM; cited from earlier work
[6] = biological target: SAM-I riboswitch 124 yitJ; conditions: calculated previously (Lim et al. 2006); read-out: KD [compound] (nM) SAM-I; cited from earlier work
SAM-II aptamer 156 metA [7] = conditions: 10 µM RNA, 100 nM [3H]SAM
Protocol: as §1, §2

[8] = Kinetics of cyclic di-GMP degradation under in-line probing conditions; type: physicochemical; conditions: in-line probing buffer, pH 8.3 at 23° C., 100 mM KCl, 20 mM MgCl2
Protocol: A solution of 500 μM cyclic di-GMP was incubated in the presence of in-line probing buffer (50 mM Tris-HCl [pH 8.3 at 23° C.], 100 mM KCl, 20 mM MgCl2) for varying amounts of time. The reactions were initiated by the addition of cyclic di-GMP and quenched when a 10 μL aliquot was injected onto an Agilent Technologies 1200 series HPLC equipped with an Agilent Zorbax Oligo column (5 μM, 6.2 mm×80 mm). The compounds were eluted using a gradient mobile phase composed of 95% 0.1 M NaHPO4 [pH 6.0 at 23° C.] and 5% acetonitrile to 100% 1 M NaCl. The absorbance was monitored at 254 nm. A rate constant for cyclic di-GMP was established by plotting the natural logarithm of the fraction of the cyclic di-GMP remaining uncleaved versus time, wherein the negative slope of the resulting line reflects the rate constant.

[9] = biological target: Escherichia coli PilZ protein domain (Escherichia coli, UniProt P76010); conditions: Ryjenkov 2006; cited from earlier work
Chain of Escherichia coli PilZ protein domain (P76010 whole entry, the tested form may be a part): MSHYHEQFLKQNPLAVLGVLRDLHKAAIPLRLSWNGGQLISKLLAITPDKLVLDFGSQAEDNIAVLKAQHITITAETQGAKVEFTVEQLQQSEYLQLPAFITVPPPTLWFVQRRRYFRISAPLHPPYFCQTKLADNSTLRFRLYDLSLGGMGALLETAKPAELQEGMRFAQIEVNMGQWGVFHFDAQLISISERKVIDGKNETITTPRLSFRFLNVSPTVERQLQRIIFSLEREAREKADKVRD

[10] = biological target: 110 Vc2 RNA (Vc2 aptamer, GEMM RNA); test: In-line probing of 110 Vc2 RNA (cyclic di-GMP aptamer); type: binding, Vibrio cholerae
Protocol: In-line probing assays were performed using methods similar to those described previously (Soukup 1999). Briefly, 5′^32P-labeled RNAs (˜[…] for cyclic di-GMP KD analysis, ˜5 nM for all other analyses) were incubated at 23° C. for approximately 40 hours in 20 mM MgCl2, 100 mM KCl, and 50 mM Tris (pH 8.3 at 23° C.) with the indicated compounds. RNA cleavage products were separated by denaturing 10% PAGE, visualized using a Phosphorimager (Molecular Dynamics), and analyzed using SAFA v1.1 software (Das 2005) or ImageQuant (Molecular Dynamics). SAFA software was used to normalize to correct for differences in the amounts of RNA loaded to each lane and to determine the intensity of each band.
To determine the KD of 110 Vc2 for cyclic di-GMP, in-line probing was conducted as described above with various concentrations of cyclic di-GMP. Due to the use of an exceptionally low concentration of radiolabeled 110 Vc2 RNA, the samples loaded were supplemented with additional unlabeled RNA that had been separately subjected to in-line probing. […] Dissociation constants (KD) were determined using ImageQuant software (Molecular Dynamics) to compare individual band intensities at sites of structural modulation assuming that there was no modulation in the absence of ligand and complete modulation in the presence of the highest ligand concentration tested. […]

[11] = test system: wild-type 149 moaA RNA (Moco RNA)-lacZ reporter fusion; test: β-galactosidase reporter assay of 149 moaA RNA fusion; type: cell-based, Escherichia coli; conditions: modC deletion strain, LB supplemented with 10 mM compound
Text: These sequences were cloned into a translational fusion plasmid upstream of, and in-frame with β-galactosidase reporter gene. The fusion was placed under the control of a constitutively active lacUV5 promoter to eliminate the effects of upstream anaerobic- and molybdate-dependent promoter regulation that naturally restricts expression of the moaA operon. This series of plasmids was placed in a strain of E. coli wherein the moaA gene was deleted. The resulting transformants were transformed with a plasmid containing the moaABCDE operon under the control of an arabinose-inducible and glucose-repressible promoter (Guzman et al., 1995). These doubly transformed strains enabled us to determine the role of the 149 moaA RNA on reporter gene expression when Moco concentrations are either high or low.
To determine whether molybdate is critical for gene regulation by 149 moaA RNA, a modC knockout strain of E. coli was conducted to eliminate high affinity molybdate transporter function. This strain was then transformed with the moaABCDE inducible expression plasmid and the wild-type and mutant 149 moaA reporter fusion plasmids.
To measure gene expression from lacZ in the wild-type and mutant reporter strains of E. coli, the cells were grown in a 14 mL culture vial with shaking overnight at 37° C. in 3 mL of LB with supplementation as indicated. […]

Nc1ncc2[nH]cnc2n1 [2-aminopurine]
binding by 17-90 RNA (17-90 RNA): no binding is detected

Nc1nc2c(c(=O)[nH]1)CC=N2 [7-deazaguanine]
binding by 17-90 RNA (17-90 RNA): bound with only a slightly better affinity

Cn1cnc2nc(N)[nH]c(=O)c21 [7-methylguanine]
binding by 17-90 RNA (17-90 RNA): lack of 7-methylguanine binding

Nc1ncnc2c1ncn2[C@@H]1O[C@H](CSC[C@H](N)C(=O)O)[C@@H](O)[C@H]1O [SAC, S-adenosylcysteine]
loss of affinity relative to SAH (68 metH RNA [1]; in-line probing): only a modest loss of affinity

C[S+](CC[C@H](N)C(=O)[O-])C[C@H]1O[C@@H](n2cnc3c(N)ncnc32)[C@H](O)[C@@H]1O (stereo partly drawn) [SAM, S-adenosyl-L-methionine]
KD [compound]/ KD [SAM] SAM-I [2]: 1
discrimination against SAM (68 metH RNA [3]; SAH versus SAM): ~3 orders of magnitude
Kd (68 metH RNA [3]; equilibrium dialysis, 25 μM 68 metH RNA): ≥ 25 µM
Kd ([4]; in-line probing, 132 Sc RNA, read-out: KD [compound] (nM) SAM-IV): 150 nM and ~150 nM
KD [compound]/ KD [SAM] SAM-IV ([4]; ratio of the KD for the compound to that for SAM): 1
Kd (SAM-II aptamer 156 metA [5]): ~1000 nM
Kd [6]: 5 nM
apparent KD relative to apparent KD for SAH (68 metH RNA [1]; in-line probing, commercial SAM (contains ~10% SAH)): no more than 10 fold

C[S+](CC[C@H](N)C(=O)O)C[C@H]1O[C@@H](n2cnc3c(N)ncnc32)[C@H](O)[C@@H]1O (stereo partly drawn) [[^3H]SAM, S-(5′-adenosyl)-L-methionine-(methyl-3H)]
shift of the distribution of [3H]SAM to the RNA chamber (SAM-II aptamer 156 metA [7]): ~1.5 fold
shift of the distribution of [3H]SAM to the RNA chamber (68 metH RNA [3]; 10 µM RNA, 100 nM [3H]SAM): no shift

Nc1nc2c(ncn2[C@@H]2O[C@@H]3COP(=O)(O)O[C@H]4[C@@H](O)[C@H](n5cnc6c(=O)[nH]c(N)nc65)O[C@@H]4COP(=O)(O)O[C@H]3[C@H]2O)c(=O)[nH]1 [cyclic di-GMP]
rate constant for spontaneous cleavage [8]: 3.2e-06 min⁻¹
Kd [9]: 840 nM
Kd ([10]; in-line probing with various cyclic di-GMP concentrations, read-out: apparent dissociation constant (KD)): ~1 nM

CN(C)Cc1c[nH]c2nc(N)[nH]c(=O)c12 [dimethylaminomethyl analog, 7-(N,N″-dimethylaminomethyl)-7-deazaguanine]
Kd (17-90 RNA): ~500 nM

N[C@@H](CCS)C(=O)O [homocysteine]
modulation of the RNA structure (68 metH RNA [1]): neither homocysteine nor methionine cause any modulation of the RNA structure

CSCC[C@H](N)C(=O)O [methionine, L-methionine]
modulation of the RNA structure (68 metH RNA [1]): neither homocysteine nor methionine cause any modulation of the RNA structure

Nc1nc2c(ncn2[C@@H]2O[C@H](COP(=O)(O)O)[C@@H](O)[C@H]2O)c(=O)[nH]1 [pG]
binding by the aptamer ([10]; concentration five orders of magnitude higher than the KD for cyclic di-GMP): not bound by the aptamer

N#CC1C=Nc2nc(N)[nH]c(=O)c21 (stereo not drawn) [preQ0, 7-cyano-7-deazaguanine]
Kd (17-90 RNA): ~500 nM

[Na+].[Na+].[O]=[Mo](=[O])([O-])[O-] [sodium molybdate]
reporter gene expression of WT 149 moaA reporter fusion [11]: expression is repressed

[Na+].[Na+].[O]=[W](=[O])([O-])[O-] [sodium tungstate]
reporter gene expression of WT 149 moaA reporter fusion [11]: becomes derepressed
